Values of other authors in publication PMC6954965 (Neuropharmacology, 2019).

Tests used:
PICK1 PDZ domain = conditions: binds the PDZ domain of PICK1; ref Thorsen et al., 2010
Male Sprague-Dawley rats = conditions: administered directly into the nucleus accumbens shell; ref Schmidt et al., 2013
PSD95 tandem PDZ domains = conditions: dimeric peptide inhibitor of PSD95 tandem PDZ domains; ref Bach et al., 2012

Compound | Ki (PICK1 PDZ domain) | reinstatement of cocaine seeking (Male Sprague-Dawley rats) | Ki (PSD95 tandem PDZ domains)
CCOC(=O)NC(=O)/C(C#N)=C/c1ccc(Cl)c(Cl)c1 [FSC231] | 10.1 µM | sufficient to attenuate | 
Tat-NPEG4(IEDTV)(2) |  |  | 0.0046 µM
